The values below come from patent US11225565B2, “Purification of sugammadex” (SYNTHON B.V., priority 2018, dated 2022).

Data set [1] can be described thus: Osmolality of sugammadex solution in water (OSMOMAT 3000, freezing point comparison). The class given is physicochemical. The following applies: concentration 108 mg/ml. Here is the method:
Osmolality was measured using OSMOMAT 3000 (Gonotec), a solution (concentration 108 mg/ml) of sugammadex in water was used. The osmolality of the solution was obtained by comparison of freezing point of the sugammadex solution and the freezing point of water.

Data set [2] in a line: Sodium content of sugammadex samples by potentiometric titration with HClO4. The following applies: sugammadex solution in glacial acetic acid, 3 mg/ml, titrated with 0.1 M HClO4. The class given is physicochemical. Here is the method: The sodium content was obtained by titration of sugammadex solution in glacial acetic acid (concentration 3 mg/ml) using 0.1 M solution of HClO4 using Titrator 794 DMS Titrino, Metrohm. The endpoint (VEQ) was determined potentiometrically.

On to “6A,6B,6C,6D,6E,6F,6G,6H-Octakis-S-(2-carboxyethyl)-6A,6B,6C,6D,6E,6F,6G-octasulfanyl-gamma-cyclodextrin octasodium salt [Example 1]”, for which the Osmolality in data set [1] is on record as 322 mOsmol/kg. Also, in data set [2], the “Sodium content % (wt/wt) based on amount of sugammadex” value (shortened to “Sodium content % (wt/wt) based”) was 8.5 % (wt/wt).
For “6A,6B,6C,6D,6E,6F,6G,6H-Octakis-S-(2-carboxyethyl)-6A,6B,6C,6D,6E,6F,6G-octasulfanyl-gamma-cyclodextrin octasodium salt [Example 2]”, in that order: 320 mOsmol/kg and 8.5 % (wt/wt).
The matching figures for “6A,6B,6C,6D,6E,6F,6G,6H-Octakis-S-(2-carboxyethyl)-6A,6B,6C,6D,6E,6F,6G-octasulfanyl-gamma-cyclodextrin octasodium salt [Example 3]”: 349 mOsmol/kg and 8.5 % (wt/wt).
“6A,6B,6C,6D,6E,6F,6G,6H-Octakis-S-(2-carboxyethyl)-6A,6B,6C,6D,6E,6F,6G-octasulfanyl-gamma-cyclodextrin octasodium salt [Example 4 of WO2017144734 application, reference compound]” gave an Osmolality in data set [1] of 986 mOsmol/kg. Also, the “Sodium content % (wt/wt) based” value in data set [2] is given as 11.14 % (wt/wt).
“6A,6B,6C,6D,6E,6F,6G,6H-Octakis-S-(2-carboxyethyl)-6A,6B,6C,6D,6E,6F,6G-octasulfanyl-gamma-cyclodextrin octasodium salt [Example 4]”: the Osmolality in data set [1] is reported as 346 mOsmol/kg. Besides, the “Sodium content % (wt/wt) based” value in data set [2] is recorded as 8.5 % (wt/wt).
The matching figures for “6A,6B,6C,6D,6E,6F,6G,6H-Octakis-S-(2-carboxyethyl)-6A,6B,6C,6D,6E,6F,6G-octasulfanyl-gamma-cyclodextrin octasodium salt [Example 5]”: 335 mOsmol/kg and 8.5 % (wt/wt).
For “6A,6B,6C,6D,6E,6F,6G,6H-Octakis-S-(2-carboxyethyl)-6A,6B,6C,6D,6E,6F,6G-octasulfanyl-gamma-cyclodextrin octasodium salt [Example 6]”, in that order: 348 mOsmol/kg and 8.5 % (wt/wt).
